Experimental data reported in patent US20240009231A1, “Method for Pleurodesis and Delivery of Drugs to the Lung and Pleural Space” (University of Cincinnati, priority 2020, published 2024).

Columns and labels:
C57BL/6J mice = details: mouse, in vivo
Procedure: Either hydroxyapatite microspheres (HAMs, Fluidinova) or talc was injected via the intrapleural (i.pl.) route into C57BL/6J mice. For the mice injected with HAMs, 4 mg/g mouse of HAM/300 μL saline/mice was used. For the mice injected with talc, 2 mg/g mouse of talc/300 μL saline/mice was used. The mice were euthanized at day 0, day 7, day 14 or day 28 and post-mortem assessments were performed. Effectiveness of pleurodesis was assessed by introducing air into the pleural space. Each lung was punctured percutaneously with a 20 G needle for 12 times for left and right lung (total 24 times) (transthoracic needle puncture). Then, a CT scan was taken to measure the volume of pneumothorax air space in the thoracic cavity (see FIGS. 1A and 1B).
In addition, paraffin-embedded lung sections were stained with H&E and Mason's trichrome reagent for microscopic evaluation of pleural fibrosis and pleural thickness. Clearance of particles was assessed by microCT (see FIGS. 2A and 2B). Macroscopic pleural adhesions were scored (see FIGS. 3A, 3B and 3C); pleural lavage cells were collected to assess OLMNGC (osteoclast-like multinucleated giant cells) formation, including cytology, fibrosis- and osteoclast-related gene and protein expression of tartrate-resistant acid phosphatase (TRAP), (CTSK), and calcitonin receptor (Calcr) antibody by rtPCR and immunohistochemistry

lungs of mice = details: mouse, in vivo

amount of residual particles in the thoracic cavity (C57BL/6J mice): decreased over time
clearance of particles (C57BL/6J mice): almost completely cleared
lung inflammation (lungs of mice): transient monocyte rich inflammation
pulmonary fibrosis (lungs of mice): no residual fibrosis
clearance of particles from the lungs (lungs of mice; inhaled or intranasal): cleared within a month
Substance: hydroxyapatite [HAMs]
